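Interpolation was linear, between the two tested concentrations surrounding the appropriate level; five concentrations were tested over 48 hours in 96-well plates. GI50 = concentration required for 50% inhibition of growth.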 Activity calls are given as the source filed them. Rule as the data show it: active = GI50 up to about 1.1 µM and inactive = higher.
Legend:
Assay in all cases: DTP human tumour cell line panel, 48 h
SNB-19 = system: SNB-19
Hs-578T = system: Hs-578T
OVCAR-8 = system: OVCAR-8
OVCAR-5 = system: OVCAR-5
UACC-257 = system: UACC-257
HT-29 = system: HT-29
DU-145 = system: DU-145
NCI-H226 = system: NCI-H226
MDA-MB-231 = system: MDA-MB-231
NCI-H23 = system: NCI-H23
NCI-H522 = system: NCI-H522
M14 = system: M14
SW-620 = system: SW-620
HL-60 = system: HL-60
UO-31 = system: UO-31
COLO 205 = system: COLO 205
Malme-3M = system: Malme-3M
SF-539 = system: SF-539
U-251 = system: U-251

Measured: GI50

O=C(CCCc1ccccn1)c1ccccc1
inactive: SNB-19 > 100 µM | Hs-578T > 100 µM | OVCAR-8 > 100 µM | OVCAR-5 > 100 µM | UACC-257 > 100 µM | HT-29 > 100 µM | DU-145 > 100 µM | NCI-H226 > 100 µM | MDA-MB-231 > 100 µM | NCI-H23 > 100 µM | NCI-H522 > 100 µM | M14 > 100 µM | SW-620 > 100 µM | HL-60 > 100 µM | UO-31 > 100 µM | COLO 205 > 100 µM | Malme-3M > 100 µM | SF-539 > 100 µM | U-251 > 100 µM

O=C1c2ccccc2C(=O)c2c1ccc(C1C(=O)c3ccccc3C1=O)c2-c1c(C2C(=O)c3ccccc3C2=O)ccc2c1C(=O)c1ccccc1C2=O
inactive: SNB-19 > 100 µM | Hs-578T > 100 µM | OVCAR-8 > 100 µM | OVCAR-5 > 100 µM | UACC-257 > 100 µM | HT-29 > 100 µM | DU-145 > 100 µM | NCI-H226 > 100 µM | MDA-MB-231 47.3 µM | NCI-H522 > 100 µM | M14 > 100 µM | SW-620 15.3 µM | HL-60 7.89 µM | UO-31 > 100 µM | COLO 205 > 100 µM | Malme-3M > 100 µM | SF-539 > 100 µM | U-251 > 100 µM

N=C(N)NS(=O)(=O)c1ccc(NC(=O)c2ccc3nc4ccccc4c(Nc4ccc(S(N)(=O)=O)cc4)c3c2)cc1
inactive: SNB-19 > 100 µM | Hs-578T > 100 µM | OVCAR-8 > 100 µM | OVCAR-5 > 100 µM | UACC-257 > 100 µM | HT-29 > 100 µM | DU-145 > 100 µM | NCI-H226 > 100 µM | MDA-MB-231 > 100 µM | NCI-H23 > 100 µM | NCI-H522 > 100 µM | M14 > 100 µM | SW-620 > 100 µM | HL-60 > 100 µM | UO-31 > 100 µM | COLO 205 > 100 µM | Malme-3M > 100 µM | SF-539 > 100 µM | U-251 > 100 µM

COc1ccc(NC(C)=O)cc1C1CCC(=O)N1 (stereo unspecified)
inactive: SNB-19 > 100 µM | Hs-578T > 100 µM | OVCAR-8 > 100 µM | OVCAR-5 > 100 µM | UACC-257 > 100 µM | HT-29 > 100 µM | DU-145 > 100 µM | NCI-H226 > 100 µM | MDA-MB-231 > 100 µM | NCI-H23 > 100 µM | NCI-H522 > 100 µM | M14 > 100 µM | SW-620 > 100 µM | HL-60 > 100 µM | UO-31 > 100 µM | COLO 205 > 100 µM | Malme-3M > 100 µM | SF-539 > 100 µM | U-251 > 100 µM

O=S(=O)(O)c1ccc(/N=N/c2c(O)ccc3ccccc23)cc1
inactive: SNB-19 > 100 µM | Hs-578T > 100 µM | OVCAR-8 > 100 µM | OVCAR-5 > 100 µM | UACC-257 > 100 µM | HT-29 > 100 µM | DU-145 > 100 µM | NCI-H226 98.2 µM | MDA-MB-231 > 100 µM | NCI-H23 > 100 µM | NCI-H522 > 100 µM | M14 > 100 µM | SW-620 > 100 µM | HL-60 > 100 µM | UO-31 > 100 µM | COLO 205 > 100 µM | Malme-3M 4.58 µM | SF-539 > 100 µM | U-251 > 100 µM

Cc1ccc(S(=O)(=O)N2C[C@@H]3CC[C@]4(CO[Si](C)(C)C(C)(C)C)N[C@@H](c5ccccc5)[C@H]2[C@H]34)cc1
inactive: SNB-19 61.4 µM | Hs-578T 27.4 µM | OVCAR-8 39.7 µM | OVCAR-5 77.8 µM | UACC-257 23.9 µM | HT-29 13.2 µM | DU-145 45 µM | NCI-H226 14.4 µM | MDA-MB-231 28.1 µM | NCI-H23 11.4 µM | NCI-H522 11.6 µM | M14 61.7 µM | SW-620 47.3 µM | HL-60 12.7 µM | UO-31 33 µM | COLO 205 17.6 µM | Malme-3M 18.6 µM | SF-539 32.4 µM | U-251 46.5 µM

O=c1oc2ccccc2cc1-c1nc2ccccc2c(=O)[nH]1
inactive: SNB-19 > 100 µM | Hs-578T > 100 µM | OVCAR-8 > 100 µM | OVCAR-5 > 100 µM | UACC-257 > 100 µM | HT-29 > 100 µM | DU-145 > 100 µM | NCI-H226 > 100 µM | MDA-MB-231 > 100 µM | NCI-H522 > 100 µM | M14 > 100 µM | SW-620 > 100 µM | HL-60 21.9 µM | UO-31 > 100 µM | COLO 205 > 100 µM | Malme-3M > 100 µM | SF-539 > 100 µM | U-251 50.4 µM
